The assay addresses Human factor D (Homo sapiens (Human), UniProt P00746). Kind of assay: Human Factor D Assay. Type of assay: biochemical. The conditions noted are these: Human factor D 80 nM, substrate Z-L-Lys-SBzl and DTNB 100 μM each, pH 7.5. Here is the method: Example 14. Human Factor D Assay
Human factor D (purified from human serum, Complement Technology, Inc.) at 80 nM final concentration is incubated with test compound at various concentrations for 5 minutes at room temperature in 50 mM Tris, 1M NaCl, pH 7.5. A synthetic substrate Z-L-Lys-SBzl and DTNB (Ellman's reagent) are added to final concentrations of 100 μM each. The increase in color is recorded at OD405 nm in a microplate in kinetic mode over 30 minutes with 30 second time points in a spectrofluorimeter. IC50 values are calculated by non-linear regression from the percentage of inhibition of complement factor D activity as a function of test compound concentration.

The term IC50 denotes the concentration needed to halve the response being measured. The low end stands for higher potency, the high end for lower potency.

Human factor D, sequence (P00746 26-253): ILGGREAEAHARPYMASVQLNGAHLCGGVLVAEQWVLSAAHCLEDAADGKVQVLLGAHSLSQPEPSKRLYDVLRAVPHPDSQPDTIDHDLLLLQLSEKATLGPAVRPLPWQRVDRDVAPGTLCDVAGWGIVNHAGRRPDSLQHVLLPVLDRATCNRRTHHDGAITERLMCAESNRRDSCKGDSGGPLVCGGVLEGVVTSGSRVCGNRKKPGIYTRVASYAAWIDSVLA

Consider `COC(=O)C1CCN(C(=O)c2ccc3c(C(C)=O)cn(CC(=O)N4C[C@H](F)C[C@H]4C(=O)NCc4cccc(Cl)c4F)c3c2)C1` (stereo partly drawn) [Compound 51, methyl 1-(3-acetyl-1-(2-((2S,4R)-2-(3-chloro-2-fluorobenzylcarbamoyl)-4-fluoropyrrolidin-1-yl)-2-oxoethyl)-1H-indole-6-carbonyl)pyrrolidine-3-carboxylate], for which the concentration for half-maximal inhibition (IC50) was less than 1 µM.
Compound `CC(=O)c1cn(CC(=O)N2C[C@H](F)C[C@H]2C(=O)NCc2cccc(Cl)c2F)c2cc(C(=O)N3CCC(C(=O)O)C3)ccc12` (stereo partly drawn) [Compound 52, 1-(3-acetyl-1-(2-((2S,4R)-2(3-chloro-2-fluorobenzylcarbamoyl)-4-fluoropyrrolidin-1-yl)-2-oxoethyl)-1H-indole-6-carbonyl) pyrrolidine-3-carboxylic acid] displayed an IC50 of less than 1 µM.
In turn, `CC(=O)c1cn(CC(=O)N2C[C@H](F)C[C@H]2C(=O)NCc2cccc(Cl)c2F)c2cc(C(=O)NS(=O)(=O)c3ccccc3)ccc12` [Compound 53] returned a half-maximal inhibitory concentration (IC50) of less than 1 µM.

Values taken from patent US9695205B2, “Amide compounds for treatment of complement mediated disorders” (Achillion Pharmaceuticals, Inc., priority 2014, dated 2017).
